These results are taken from patent US9592212B2, “Use of pan-PPAR agonists for treatment of tauopathies” (Cornell University, priority 2011, dated 2017).

Data set [1] has as its system R6/2 mice. Kind of data set: Survival of R6/2 mice (Kaplan-Meier). The format is in vivo. The following applies: 0.5% bezafibrate diet. The procedure:
(§1) All experiments were conducted within National Institutes of Health guidelines for animal research and were approved by the Weill Cornell Medical College Animal Care and Use Committee. The animals were kept on a 12-hr light/dark cycle, with food and water available ad libitum. Mice were fed standard diet containing 0.5% bezafibrate or standard diet (Purina-Mills Richmond, Ind., USA), starting right after weaning up to 3 months of age.
R6/2 mice normally die prematurely as compared to their wild-type littermates, between the age of 70-91 days (Mangiarini et al. 1996). Symptomatic mice approaching the disease endstage were examined twice daily (morning and late afternoon) to assess when they reached end-stage of the disease, as assessed by the righting reflex or failure to eat moistened chow placed beside mice over a 24 hour period. At this point, mice were euthanized by CO2 inhalation. This day was recorded as time of death of the mice. […] In our hands, the R6/2 mice survived to 77-88 days of age, and the longest living mouse died at 90 days of age (mean=84+1.2 days). Bezafibrate treated R6/2 mice lived 20% longer than the R6/2 mice on a standard diet (mean=102+3.2 days) (FIG. 2D).

For data set [2] the following is noted: used in man for more than 25 years; cited from earlier work.
The test system of the next data set is P301S mice. As to the kind of experiment: Mitochondria characterisation in brains of P301S and wild-type mice. The format is in vivo. The text has this: Animals were generated by breeding P301S transgenic male mice with wild-type female mice obtained from Jackson Laboratory (Bar Harbor, Me., USA). Offspring were genotyped by PCR of tail DNA. P301S transgenic mice and their wild-type littermates were randomly assigned to receive either control diet (LabDiet 5002) or 0.5% bezafibrate diet (Sigma, St. Louis, Mo., USA) from 1 to 10 months of age ad libitum. The chow was pelleted by Purina-Mills (Richmond, Ind., USA). Behavioral analyses were performed at 5, 7, and 9 months of age. Histopathological and biochemical analyses were conducted at 10 months of age on the same animals. All experiments were approved by the Weill Cornell Medical College Institutional Animal Care and Use Committee.
Dissected, non-perfused frontal lobe samples (˜30-55 mg) were stored frozen at ? 80° C. until assaying. Before assays, tissue samples were thawed on ice and homogenized with Dounce-type 2 ml homogenizer (glass vessel/glass pestle). […]
The protein lysates containing equal amounts of protein were separated by SDS-PAGE, electroblotted onto a nitrocellulose membrane (BioRad, Hercules, Calif., USA), and immunoreacted with an appropriate primary antibody (see below) followed by HRP-conjugated secondary antibody (Kierkegaard Perry Labs Inc., Gaithersburg, Md., USA). […] Quantitative analysis was performed using NIH “ImageJ” software. […]

In data set [3] the test system is R6/2 mice. Kind of data set: Behavioral tests (grip strength, open field, rotarod) in R6/2 mice. Format: in vivo. Conditions: 0.5% bezafibrate diet. As to the method: as §1
Experimenters were blind to the genotype during all testing, at least until the appearance of a robust behavioral phenotype in the mutants. We utilized a behavioral testing battery consisting of: rotarod, grip strength and open field. […] The latency to fall from the rod was recorded. Exploratory behavior was recorded in the open-field (45 cm×45 cm; height: 20 cm), for 10 min per day using a video tracking system (Ethovision 3.0, Noldus Technology, Attleborough, Mass., USA) and averaged over 3 days. […]
To assess muscle strength we tested the R6/2 mice and their wild-type littermates on the grip strength test (FIG. 2A). […] Motor coordination was assessed by performance on an accelerated rotarod apparatus. Latency to fall was recorded for 3 trials per weekly assessment and scores were averaged (FIG. 2C).
(Falling from the rotarod earlier than controls is read as motor impairment.)

The next data set deals with N171-82Q mice. Conditions: cited from earlier work.

Turning to `CC(C)(Oc1ccc(CCNC(=O)c2ccc(Cl)cc2)cc1)C(=O)O` [bezafibrate], the “increase in survival vs R6/2 mice on standard diet” value in the data set with R6/2 mice [1] is listed as 20%. The mean survival with R6/2 mice [1] (standard diet mean=84+1.2 days) is 102+3.2 days. In data set [2], the tolerability in man result was “well-tolerated with few side effects”. Moreover, in the data set with P301S mice, the “mitochondrial enzymes and PGC1α in brain” value is recorded as “no effect”. Also, the “increase in grip strength compared to untreated R6/2 mice” value in the data set with R6/2 mice [3] was “up to 2 fold”.
As for `CN(CC(=O)O)C(=N)N` [creatine], in the data set on N171-82Q mice, the increase in survival is 19%.
